Reference: ChEMBL document CHEMBL5154795, “Exploring the structure-activity relationships of diphenylurea as an antibacterial scaffold active against methicillin- and vancomycin-resistant Staphylococcus aureus” (Eur J Med Chem, 2022)
Converted amounts (≈) assume the structure as drawn. The source made the active and inactive calls. The calls are words filed in the database; no cut-off is given here.

Key:
[1] = test system: Staphylococcus aureus; assay: Antibacterial activity against methicillin-resistant Staphylococcus aureus USA300 incubated for 18 to 20 hrs by broth microdilution method; assay type: functional; conditions: time 18-20 hrs
[2] = test system: Staphylococcus aureus; assay: microbe, parasite or virus in culture; conditions: 1
[3] = test system: Staphylococcus aureus; assay: Antibacterial activity against Vancomycin-resistant Staphylococcus aureus 10 incubated for 18 to 20 hrs by broth microdilution method; assay type: functional; conditions: time 18-20 hrs
[4] = test system: Staphylococcus aureus; assay: Antibacterial activity against Vancomycin-resistant Staphylococcus aureus 9 incubated for 18 to 20 hrs by broth microdilution method; assay type: functional; conditions: time 18-20 hrs
[5] = test system: Staphylococcus aureus; assay: microbe, parasite or virus in culture; conditions: 13
[6] = test system: Staphylococcus aureus; assay: Antibacterial activity against Vancomycin-resistant Staphylococcus aureus 12 incubated for 18 to 20 hrs by broth microdilution method; assay type: functional; conditions: time 18-20 hrs
[7] = test system: Staphylococcus aureus; assay: microbe, parasite or virus in culture; conditions: 3b
[8] = test system: Staphylococcus aureus; assay: microbe, parasite or virus in culture; conditions: 2
[9] = test system: Staphylococcus aureus; assay: microbe, parasite or virus in culture; conditions: 3a
[10] = test system: Staphylococcus aureus; assay: Antibacterial activity against methicillin-resistant Staphylococcus aureus USA400 NRS 123 assessed as time of post-antibiotic effect at 5 times MIC incubated for 2 hrs followed by compound washout and measured every single 1 hr; assay type: functional
[11] = test system: Staphylococcus aureus; assay: Antibacterial activity against methicillin-resistant Staphylococcus aureus NRS 119 incubated for 18 to 20 hrs by broth microdilution method; assay type: functional; conditions: time 18-20 hrs
[12] = test system: Staphylococcus epidermidis; assay: Antibacterial activity against Staphylococcus epidermidis NRS 101 incubated for 18 to 20 hrs by broth microdilution method; assay type: functional; conditions: time 18-20 hrs
[13] = test system: Staphylococcus aureus; assay: Antibacterial activity against methicillin-sensitive Staphylococcus aureus NRS 107 incubated for 18 to 20 hrs by broth microdilution method; assay type: functional; conditions: time 18-20 hrs
[14] = test system: Staphylococcus aureus; assay: Antibacterial activity against methicillin-resistant Staphylococcus aureus NRS 384 (USA300) incubated for 18 to 20 hrs by broth microdilution method; assay type: functional; conditions: time 18-20 hrs
[15] = test system: Staphylococcus aureus; assay: Antibacterial activity against methicillin-resistant Staphylococcus aureus NRS 123 (USA400) incubated for 18 to 20 hrs by broth microdilution method; assay type: functional; conditions: time 18-20 hrs
[16] = test system: Staphylococcus aureus; assay: Antibacterial activity against methicillin-sensitive Staphylococcus aureus ATCC 6538 incubated for 18 to 20 hrs by broth microdilution method; assay type: functional; conditions: time 18-20 hrs
[17] = test system: Staphylococcus aureus; assay: Potentiation of vancomycin-induced antibacterial activity against vancomycin-resistant Staphylococcus aureus 13 assessed as vancomycin MIC at 0.5 times MIC incubated for 18 to 20 hrs by broth microdilution method; assay type: functional; conditions: time 18-20 hrs
[18] = Cytotoxicity against human HaCaT cells assessed as cell viability at 64 ug/ml incubated for 24 hrs by MTS assay relative to control; assay type: toxicity, cell-based; conditions: at 64 µg/mL, read-out: Activity
[19] = test system: Staphylococcus aureus; assay: Potentiation of vancomycin-induced antibacterial activity against vancomycin-resistant Staphylococcus aureus 10 assessed as vancomycin MIC at 0.5 times MIC incubated for 18 to 20 hrs by broth microdilution method; assay type: functional; conditions: time 18-20 hrs
[20] = test system: Staphylococcus aureus; assay: Antibacterial activity against methicillin-resistant Staphylococcus aureus USA300 infected in BALB/c mouse assessed as reduction in bacterial count in spleen administered 72 hrs post infection topically twice daily for 4 days; assay type: functional, organism-based; conditions: time 4.0 day
[21] = Hemolytic activity in rabbit erythrocytes at 32 ug/ml incubated for 30 min by absorbance based analysis relative to control; assay type: toxicity, cell-based, Oryctolagus cuniculus, Erythrocyte; conditions: at 32 µg/mL, read-out: Activity
[22] = test system: Staphylococcus aureus; assay: Antibacterial activity against methicillin-resistant Staphylococcus aureus NRS 385 (USA500) incubated for 18 to 20 hrs by broth microdilution method; assay type: functional; conditions: time 18-20 hrs
[23] = test system: Staphylococcus aureus; assay: Antibacterial activity against methicillin-resistant Staphylococcus aureus USA300 infected in BALB/c mouse assessed as recovery of body weight loss administered 72 hrs post infection topically twice daily for 4 days; assay type: functional, organism-based; conditions: time 4.0 day
[24] = test system: Erythrocyte; assay: Hemolytic activity in rabbit erythrocytes at 128 ug/ml incubated for 30 min by absorbance based analysis; assay type: toxicity, cell-based, Oryctolagus cuniculus; conditions: 0.5 h, dose 128 µg/ml
[25] = test system: Staphylococcus aureus; assay: Potentiation of vancomycin-induced antibacterial activity against vancomycin-resistant Staphylococcus aureus 2 assessed as vancomycin MIC at 0.5 times MIC incubated for 18 to 20 hrs by broth microdilution method; assay type: functional; conditions: time 18-20 hrs
[26] = Hemolytic activity in rabbit erythrocytes at 64 ug/ml incubated for 30 min by absorbance based analysis relative to control; assay type: toxicity, cell-based, Oryctolagus cuniculus, Erythrocyte; conditions: at 64 µg/mL, read-out: Activity
[27] = test system: Caco-2; assay: Cytotoxicity against human Caco-2 cells at 128 ug/ml incubated for 24 hrs by MTS assay; assay type: toxicity, cell-based; conditions: caco-2, 24 h, dose 128 µg/ml
[28] = test system: Staphylococcus aureus; assay: Antibacterial activity against methicillin-resistant Staphylococcus aureus NRS 386 (USA700) incubated for 18 to 20 hrs by broth microdilution method; assay type: functional; conditions: time 18-20 hrs
[29] = test system: Staphylococcus aureus; assay: Potentiation of vancomycin-induced antibacterial activity against vancomycin-resistant Staphylococcus aureus 3b assessed as vancomycin MIC at 0.5 times MIC incubated for 18 to 20 hrs by broth microdilution method; assay type: functional; conditions: time 18-20 hrs
[30] = test system: Staphylococcus aureus; assay: Potentiation of vancomycin-induced antibacterial activity against vancomycin-resistant Staphylococcus aureus 3 assessed as vancomycin MIC at 0.5 times MIC incubated for 18 to 20 hrs by broth microdilution method; assay type: functional; conditions: time 18-20 hrs
[31] = test system: Staphylococcus aureus; assay: Potentiation of vancomycin-induced antibacterial activity against vancomycin-resistant Staphylococcus aureus 12 assessed as vancomycin MIC at 0.5 times MIC incubated for 18 to 20 hrs by broth microdilution method; assay type: functional; conditions: time 18-20 hrs
[32] = test system: Staphylococcus aureus; assay: Potentiation of vancomycin-induced antibacterial activity against vancomycin-resistant Staphylococcus aureus 1 assessed as vancomycin MIC at 0.5 times MIC incubated for 18 to 20 hrs by broth microdilution method; assay type: functional; conditions: time 18-20 hrs
[33] = test system: Staphylococcus aureus; assay: Potentiation of vancomycin-induced antibacterial activity against vancomycin-resistant Staphylococcus aureus 9 assessed as vancomycin MIC at 0.5 times MIC incubated for 18 to 20 hrs by broth microdilution method; assay type: functional; conditions: time 18-20 hrs
[34] = test system: Staphylococcus aureus; assay: Antibacterial activity against methicillin-resistant Staphylococcus aureus USA300 infected in BALB/c mouse assessed as reduction in bacterial count administered 72 hrs post infection topically twice daily for 4 days; assay type: functional, organism-based; conditions: time 4.0 day
[35] = test system: Caco-2; assay: Cytotoxicity against human Caco-2 cells assessed as reduction in cell viability at 64 ug/ml incubated for 24 hrs by MTS assay; assay type: toxicity, cell-based; conditions: caco-2, 24 h, dose 64 µg/ml
[36] = test system: Staphylococcus aureus; assay: Induction of drug resistance in methicillin-resistant Staphylococcus aureus USA400 NRS 123 assessed as fold increase in MIC measured after 15 passages by broth microdilution assay; assay type: functional
[37] = test system: Staphylococcus aureus; assay: Induction of drug resistance in methicillin-resistant Staphylococcus aureus USA400 NRS 123 assessed as fold increase in MIC measured after 7 passages by broth microdilution assay; assay type: functional

With C/C(=N\NC(=N)N)c1ccc(NC(=O)Nc2ccc(C=C3CCC3)cc2)cc1 as the compound, how does the MIC [1] read?
The MIC was 4 µg/mL (≈ 10.6 µM).

What does the source list for CN[C@H](CC(C)C)C(=O)N[C@H]1C(=O)N[C@@H](CC(N)=O)C(=O)N[C@H]2C(=O)N[C@H]3C(=O)N[C@H](C(=O)N[C@H](C(=O)O)c4cc(O)cc(O)c4-c4cc3ccc4O)[C@H](O)c3ccc(c(Cl)c3)Oc3cc2cc(c3O[C@@H]2O[C@H](CO)[C@@H](O)[C@H](O)[C@H]2O[C@H]2C[C@](C)(N)[C@H](O)[C@H](C)O2)Oc2ccc(cc2Cl)[C@H]1O [VANCOMYCIN]?
MIC [2]: 64 µg/mL (≈ 44.2 µM); MIC [3]: 64 µg/mL (≈ 44.2 µM); MIC [4]: > 64 µg/mL; MIC [5]: > 512 µg/mL; MIC [6]: > 64 µg/mL; MIC [7]: 64 µg/mL (≈ 44.2 µM); MIC [8]: 64 µg/mL (≈ 44.2 µM); MIC [9]: 64 µg/mL (≈ 44.2 µM); Time [10]: 3 h

Which MIC [1] does the source give for C/C(=N\NC(=N)N)c1ccc(NC(=O)Nc2ccc(C3CC3)cc2)cc1 here?
Its MIC is at least 64 µg/mL.

With C/C(=N\NC(=N)N)c1ccc(NC(=O)Nc2ccc(-c3ccc(C)cc3)cc2)cc1 as the compound, how does the MIC [1] read?
Its MIC is 4 µg/mL (≈ 9.99 µM).

Which MIC [3] does the source give for CC(=O)NC[C@H]1CN(c2ccc(N3CCOCC3)c(F)c2)C(=O)O1 [LINEZOLID] here?
The MIC was 1 µg/mL (≈ 2.96 µM).

What about the MIC [11] of the same compound?
The MIC was 32 µg/mL (≈ 94.9 µM).

And the MIC [12]?
The MIC was 1 µg/mL (≈ 2.96 µM).

And the MIC [13]?
The MIC was 1 µg/mL (≈ 2.96 µM).

What about the MIC [4] of the same compound?
The MIC was 1 µg/mL (≈ 2.96 µM).

What about the MIC [14] of the same compound?
The MIC was 1 µg/mL (≈ 2.96 µM).

And the MIC [15]?
The MIC was 1 µg/mL (≈ 2.96 µM).

And the MIC [16]?
Its MIC is 1 µg/mL (≈ 2.96 µM).

For C/C(=N\NC(=N)N)c1ccc(NC(=O)Nc2ccc(/C=C/CC(C)C)cc2)cc1, which MIC [17] is on record?
The MIC was 16 µg/mL.

What about the viability at 24 h, 64 ug/ml [18] of the same compound?
The viability at 24 h, 64 ug/ml was 100%.

And the MIC [19]?
Its MIC is 16 µg/mL.

What about the MIC [3] of the same compound?
Its MIC is 8 µg/mL (≈ 20.4 µM).

And the MIC [11]?
The MIC was 4 µg/mL (≈ 10.2 µM).

What about the Activity [20] of the same compound?
Its Activity is “Active”.

And the hemolysis at 0.5 h, 32 ug/ml [21]?
The hemolysis at 0.5 h, 32 ug/ml was under 10%.

What about the MIC [12] of the same compound?
Its MIC is 4 µg/mL (≈ 10.2 µM).

And the MIC [22]?
Its MIC is 4 µg/mL (≈ 10.2 µM).

And the Activity [23]?
Its Activity is “Active”.

What about the Activity [24] of the same compound?
Its Activity is “Toxic”.

What about the MIC [13] of the same compound?
Its MIC is 4 µg/mL (≈ 10.2 µM).

What about the MIC [25] of the same compound?
Its MIC is 4 µg/mL.

And the hemolysis at 0.5 h, 64 ug/ml [26]?
Its hemolysis at 0.5 h, 64 ug/ml is 50%.

And the MIC [4]?
The MIC was 4 µg/mL (≈ 10.2 µM).

What about the MIC [14] of the same compound?
Its MIC is 2 µg/mL (≈ 5.1 µM).

And the Activity [27]?
The Activity was “Toxic”.

And the MIC [28]?
The MIC was 4 µg/mL (≈ 10.2 µM).

And the MIC [6]?
Its MIC is 8 µg/mL (≈ 20.4 µM).

What about the MIC [15] of the same compound?
Its MIC is 4 µg/mL (≈ 10.2 µM).

What about the MIC [29] of the same compound?
The MIC was 8 µg/mL.

And the MIC [30]?
Its MIC is 2 µg/mL.

And the MIC [31]?
The MIC was 64 µg/mL.

And the MIC [32]?
Its MIC is 4 µg/mL.

What about the MIC [33] of the same compound?
Its MIC is 16 µg/mL.

And the MIC [16]?
The MIC was 4 µg/mL (≈ 10.2 µM).

And the Activity [34]?
The Activity was “Active”.

What about the Time [10] of the same compound?
The Time was 5 h.

What about the Activity [35] of the same compound?
The Activity was “Non-Toxic”.

Which MIC [1] does the source give for C/C(=N\NC(=N)N)c1ccc(NC(=O)Nc2ccc(-c3cccnc3)cc2)cc1 here?
Its MIC is 4 µg/mL (≈ 10.3 µM).

With C/C(=N\NC(=N)N)c1ccc(NC(=O)Nc2ccc(-c3cc4ccccc4o3)cc2)cc1 as the compound, how does the MIC [1] read?
The MIC was 4 µg/mL (≈ 9.38 µM).

For CO[C@H]1/C=C/O[C@@]2(C)Oc3c(C)c(O)c4c(O)c(c(/C=N/N5CCN(C)CC5)c(O)c4c3C2=O)NC(=O)/C(C)=C\C=C\[C@H](C)[C@H](O)[C@@H](C)[C@@H](O)[C@@H](C)[C@H](OC(C)=O)[C@@H]1C, which fold change (FC) [36] is on record?
The fold change (FC) was over 500000.

And the fold change (FC) [37]?
Its fold change (FC) is 8.

For CC(=O)O[C@H]1C[C@@]2(C)[C@@H](C[C@@H](O)[C@H]3[C@@]4(C)CC[C@@H](O)[C@@H](C)[C@@H]4CC[C@@]32C)/C1=C(\CCC=C(C)C)C(=O)O, which Activity [20] is on record?
Its Activity is “Active”.

What about the Activity [23] of the same compound?
The Activity was “Active”.

What about the Activity [34] of the same compound?
The Activity was “Active”.

For C/C(=N\NC(=N)N)c1ccc(NC(=O)Nc2ccc(-c3ccsc3)cc2)cc1, which MIC [1] is on record?
The MIC was 4 µg/mL (≈ 10.2 µM).

With C/C(=N\NC(=N)N)c1ccc(NC(=O)Nc2ccc(-c3ccc4ccccc4c3)cc2)cc1 as the compound, how does the MIC [1] read?
The MIC was 4 µg/mL (≈ 9.16 µM).
